According to US9273043B2, “TRPV1 antagonists including dihydroxy substituent and uses thereof” (Purdue Pharma L.P., priority 2011, dated 2016):

Key:
Format in all cases: cell-based
[1] = target: T1, human TRPV1 (Homo sapiens (Human), UniProt Q8NER1); assay: Capsaicin-based assay, Protocol 2, TRPV1/CHO cells (hCAP-CHO), Fluo-4 FLIPR; conditions: 100 nM capsaicin, mean ± SEM
Summary of the method: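 CHO cells stably transfected with human TRPV1 cDNA (G418-selected) were loaded with 3 μM Fluo-4 for 1 h, washed, then read on FLIPR with 15 s baseline before additions. Compound tested at final 100 μM to 1.5625 μM against capsaicin stimulation; calcium fluorescence time course curve-fitted.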

[2] = target: T1, human TRPV1; assay: Human TRPV1 heat-based assay, hTRPV1/CHO cells (hHeat-CHO); conditions: temperature ramp 25 to 45 °C, mean ± SEM
Experimental: Human TRPV1 Heat-based Assay:
CHO cells stably expressing human TRPV1 (hTRPV1) were used. Functional assessment of heat-induced activation of hTRPV1 was carried out in a cell-based Ca^2+ flux assay using ABI7500 Fast Real-Time PCR System as described in Reubish et al., “Functional assessment of temperature-gated ion-channel activity using a real-time PCR machine,” www.BioTechniques.com 47(3):iii-ix (2009), which is hereby incorporated by reference. Briefly, hTRPV1/CHO cells were cultured in growth media in a tissue culture dish at 37° C. in a CO2 incubator. On the day of the assay, culture media were removed and the cells were then detached using 0.05% trypsin at 37° C. with 5% CO2, for 90 s. The detached cells were centrifuged (1000 rpm, 4 min) to remove trypsin-containing supernatant and resuspended in assay buffer (115 mM NaCl, 5.4 mM KCl, 0.8 mM MgCl2.6H2O, 1.8 mM CaCl2.2H2O, 13.8 mM D-glucose, and 20 mM HEPES). Then, the cells were loaded with 5 μM Fluo-4, a Ca^2+ reporter dye, in the presence of 2.5 mM probenecid at 37° C. with 5% CO2, for 45 min. Thereafter, the cells were washed twice with measuring buffer (assay buffer supplemented with 0.1% BSA and 3.2 mM CaCl2) then transferred to a Fast 96-well Reaction Plate (0.1 mL) (Part no. 4346907, MICROAMP, Applied Biosystems, Foster City, Calif.). The cell density was 100,000 cells/24 μL/well. A solution of the compound under test (6 μL/well) was added into each well of the 96-well plate. Thus, the reaction volume per well was 30 μL.
The plates were then placed inside an ABI7500 Fast Real-Time PCR instrument (Applied Biosystems) to read fluorescence at different temperatures using 7500 software, version 2.0.2 (Applied Biosystems). The initial temperature was set at 25° C. for 1 min. followed by a temperature ramp to 45° C. in 100 s to deliver heat to cells. [Ca^2+], response of hTRPV1/CHO cells to heat was determined as: [fluorescence read at 45° C.−fluorescence read at 25° C.].
Compound concentration response curves and IC50 values were analyzed using GraphPad Prism 4 software (GraphPad Software, La Jolla, Calif.).
The IC50 data provided in Table 6 are shown as mean±standard error of the mean; the number of trials conducted for each assay is shown in parentheses except for only a single trial where no number of trials is shown in parentheses.

[3] = target: T1, human TRPV1; assay: pH-based assay, Protocol 2, TRPV1/CHO cells (hpH-CHO), Fura-2 Ca2+ influx; conditions: pH 5.0-5.1 (H2SO4), mean ± SEM
Experimental: For Protocol 2, a Chinese Hamster Ovary cell line (CHO) that has been engineered to constitutively express human recombinant TRPV1 was used (TRPV1/CHO cells). The TRPV1/CHO cell line was generated as described below.
TRPV1/CHO cells were seeded in the 96-well clear-bottom black-wall plate (Nunc) at densities of 1-2×10^4 cells/well and grown in 100 μL of culture medium (alpha-MEM supplemented with 10% FBS, 20 mM HEPES, 1 mg/mL geneticin and 1% antibiotic-antimycotic mixed stock solution) for 1-2 days before the experiment.
(1) Culture medium was removed using an 8-channel-pipette (Rainin, USA) from the 96-well plate and the wells were refilled with 100 μL of loading buffer (20 mM HEPES, 115 mM NaCl, 5.4 mM KCl, 0.8 mM MgCl2, 1.8 mM CaCl2, 13.8 mM D-glucose, 2.5 mM probenecid, pH 7.4) containing 5 μM Fura-2 AM (Dojin, Japan).
(2) The 96-well plate was incubated at 37° C. for 45 min.
(3) The loading buffer was removed from each well. The cells were subsequently washed twice with 150 μL of measuring buffer (20 mM HEPES, 115 mM NaCl, 5.4 mM KCl, 0.8 mM MgCl2, 5.0 mM CaCl2, 13.8 mM D-glucose, 0.1% BSA, pH 7.4) (no probenecid). The wells were then refilled with 80 μL of measuring buffer.
(4) After an incubation at 4° C. for 15 min, the 96-well plate was transferred to a model FDSS-3000 plate reader apparatus (Hamamatsu Photonics K.K., Japan).
(5) The Fura-2 fluorescent intensity was monitored at a wavelength of 340 nm and at 380 nm, respectively, at a rate of 0.5 Hz for a total of 240 seconds. After 16 time points (32 sec) of baseline detection, 20 μL of agonist solution was added to each well. The final volume was 100 μL/well.
(6) Fluorescence intensity ratio refers to the fluorescence intensity at 340 nm over the fluorescence intensity at 380 nm at a particular time point. The baseline was set as the average of the fluorescent intensity ratios for the first 16 time points before the addition of agonist solution. The maximum response was the highest fluorescent intensity ratio during the 60 time points following addition of agonist solution.
(7) Maximal signal ratios from each well were calculated as output data using the FDSS-3000 analysis program. Data were analyzed using Excel (Microsoft) and XLfit (idbs) software.
In an “agonist plate,” two different agonist solutions with different H2SO4 concentrations were used for the pH assay (see, e.g., FIG. 3A of U.S. Patent Application Publication No. US 2009/0170868 A1). For the first half of a 96-well plate one agonist solution was used; for the second half the other agonist solution was used. The agonist solutions were obtained by diluting sulfuric acid (1M H2SO4) with measuring buffer. The concentrations for the two agonist solutions were determined as described above in Section 2 of Protocol 2.
The sulfuric acid concentrations between the two agonist solutions differed by 0.5 mM. In the experiment described in Section 2 of Protocol 2, the sulfuric acid concentrations in the agonist solutions were determined to be 16 mM and 16.5 mM, respectively. After 1:4 dilution of the agonist solutions, the final sulfuric acid concentration was 3.2 mM and 3.3 mM, respectively. The resulting pH value for the pH assay was 5.0 to 5.1.
Test compounds were dissolved in DMSO to yield 1 mM stock solutions. The stock solutions were further diluted using DMSO in […] serial dilution steps with 6 points (1000, 250, 62.5, 15.625, 3.9062, and 0.977 μM). The thereby-obtained solutions were further diluted in measuring buffer (1:100) as 10× stock serial dilutions with a DMSO concentration of 1%. 10 μL of a 10× stock was added into each well of an “antagonist plate” (see step 3.3.(4) below). Thus, the final concentrations of antagonists was as follows: 0.977, 3.906, 15.63, 62.5, 250, and 1000 nM containing 0.1% DMSO (see, e.g., FIG. 3B of U.S. Patent Application Publication No. US 2009/0170868 A1).
Steps (1) and (2) of this Assay were the same as steps 2.2.(1) and 2.2.(2), respectively, of Protocol 2. […]

T1 sequence (Q8NER1 whole entry, looked up): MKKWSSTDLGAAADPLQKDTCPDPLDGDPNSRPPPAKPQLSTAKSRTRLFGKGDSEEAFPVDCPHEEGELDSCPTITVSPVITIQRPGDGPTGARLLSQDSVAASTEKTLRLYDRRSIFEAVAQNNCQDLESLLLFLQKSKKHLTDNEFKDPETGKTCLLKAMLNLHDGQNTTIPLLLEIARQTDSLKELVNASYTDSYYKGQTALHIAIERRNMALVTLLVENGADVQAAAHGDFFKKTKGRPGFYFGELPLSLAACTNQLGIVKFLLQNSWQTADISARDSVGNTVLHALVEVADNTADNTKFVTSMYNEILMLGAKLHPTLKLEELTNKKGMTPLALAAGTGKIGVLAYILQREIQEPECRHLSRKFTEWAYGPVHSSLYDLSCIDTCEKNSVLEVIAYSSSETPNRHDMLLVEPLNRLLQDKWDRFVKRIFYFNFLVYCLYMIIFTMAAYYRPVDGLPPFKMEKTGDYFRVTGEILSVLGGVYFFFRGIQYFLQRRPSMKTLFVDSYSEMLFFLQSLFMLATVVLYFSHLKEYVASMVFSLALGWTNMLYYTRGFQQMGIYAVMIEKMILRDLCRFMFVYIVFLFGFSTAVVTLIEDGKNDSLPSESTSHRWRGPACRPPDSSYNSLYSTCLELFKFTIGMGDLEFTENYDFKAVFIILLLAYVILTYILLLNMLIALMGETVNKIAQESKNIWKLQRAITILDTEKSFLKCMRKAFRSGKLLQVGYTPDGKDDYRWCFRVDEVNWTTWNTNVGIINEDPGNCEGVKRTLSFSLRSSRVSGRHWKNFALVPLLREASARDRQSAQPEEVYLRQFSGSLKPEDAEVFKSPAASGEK

IC50 [1] | IC50 [2] | IC50 [3] | Compound
26.9 ± 3.6 nM | 96 ± 14 nM | 20.6 ± 2.6 nM | C[C@H](O)[C@@H](O)c1cnc(N2CCN(C(=O)Nc3nc4ccc(Cl)cc4s3)CC2)c(F)c1 [C123(r), N-(6-chlorobenzo[d]thiazol-2-yl)-4-(5-((1S,2S)-1,2-dihydroxypropyl)-3-fluoropyridin-2-yl)piperazine-1-carboxamide]
23.9 ± 3.8 nM | 18.4 ± 0.8 nM | 0.6 ± 0.2 nM | C[C@@H]1CN(c2ncc([C@@H](O)CO)cc2F)CCN1C(=O)Nc1nc2ccc(F)cc2s1 [A125(e), (R)-4-(5-((R)-1,2-dihydroxyethyl)-3-fluoropyridin-2-yl)-N-(6-fluorobenzo[d]thiazol-2-yl)-2-methylpiperazine-1-carboxamide]
80.6 ± 7.5 nM | 96 ± 2.4 nM | 5.8 ± 0.7 nM | C[C@@H]1CN(c2ncc([C@@H](O)CO)cc2F)CCN1C(=O)Nc1nc2ccccc2s1 [A122(e), (R)—N-(benzo[d]thiazol-2-yl)-4-(5-((R)-1,2-dihydroxyethyl)-3-fluoropyridin-2-yl)-2-methylpiperazine-1-carboxamide]
